Assay results as given in patent US10920265B2, “Compounds and methods for detection of enzymes that remove methyl succinyl groups from epsilon-amino lysine moieties” (Enzo Life Sciences, Inc., priority 2011, dated 2021).
Values belong to the molecule of their own block, whether it stands above or below them.

Assays:
Type in all cases: biochemical
SIRT5 [1] = molecular target: T1, SIRT5 (Homo sapiens, UniProt Q9NXA8); assay: Inhibition of SIRT5 desuccinylation of Ac-Lys(Succ.)-AMC; set-up: purchased Enzo Life Sciences BML-SE555; conditions: three parameter Hill-Slope model, bottom fixed at 0
T1 sequence (Q9NXA8 37-310): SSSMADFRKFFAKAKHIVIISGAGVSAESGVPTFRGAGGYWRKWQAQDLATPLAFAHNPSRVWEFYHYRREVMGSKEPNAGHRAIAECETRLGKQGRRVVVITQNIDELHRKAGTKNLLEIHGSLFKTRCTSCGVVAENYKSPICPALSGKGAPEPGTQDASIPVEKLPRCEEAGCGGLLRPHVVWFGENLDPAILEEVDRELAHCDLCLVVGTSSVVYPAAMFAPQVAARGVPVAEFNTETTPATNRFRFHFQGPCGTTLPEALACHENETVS
From the text: Signal development (trypsin treatment) and fluorescence readings were done as described, as were the conversion of fluorescence increases to rates in units of pmol/min/μg (FIG. 5). Data points represent the mean of three determinations and the error bars are the standard deviations from those means. The dose-response curve was derived from a least-squares fit to a three parameter Hill-Slope model (bottom fixed at 0 pmol/min/μg), y=top/(1+(x/IC50)^slope).
Data points represent the mean of three determinations and the error bars are the standard deviations from those means. The dose-response curve was derived from a least-squares fit to a three parameter Hill-Slope model (bottom fixed at 0 pmol/min/μg), y=top/(1+(x/IC50)^slope).
(§1) Assays were performed at 37° C., according to the manufacturer's instructions for the “SIRT1 Fluorometric Drug Discovery Kit” from Enzo Life Sciences (ELS) (Cat. # BML-AK555), with exceptions described as follows. Where indicated in figures and text, SIRT1 enzyme was replaced with another enzyme or extract and the “Fluor de Lys-SIRT1 Substrate” (Ac-Arg-His-Lys-Lys(Ac)-AMC; ELS Cat. # BML-KI-177) was replaced with another acetylated, succinylated or trifluoroacetylated substrate.

[2] = molecular target: T2, bovine pancreatic trypsin (Bos taurus, UniProt P00760); assay: Trypsin release of AMC from lysyl-AMC compounds; conditions: 1 μM compound, trypsin 2 mg/ml, room temperature
T2 construct: purchased ENZO Life Sciences BML-KI105 or BML-KI176; host or cells: bovine pancreas
T2 sequence (P00760 24-246): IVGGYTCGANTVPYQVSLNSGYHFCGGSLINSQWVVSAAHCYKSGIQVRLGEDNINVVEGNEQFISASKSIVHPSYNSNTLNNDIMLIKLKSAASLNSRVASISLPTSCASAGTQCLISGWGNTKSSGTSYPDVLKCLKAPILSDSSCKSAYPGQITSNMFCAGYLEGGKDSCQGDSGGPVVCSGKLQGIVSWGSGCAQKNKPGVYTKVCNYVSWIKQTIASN
Method: FIG. 2 is a graph showing that trypsin treatment releases fluorescent AMC from Ac-Lys-AMC but not Ac-Lys(Succinyl)-AMC. Samples (100 μl) of 1 μM Ac-Lys-AMC and 1 μM Ac-Lys(Succinyl)-AMC in a buffered solution (50 mM Tris/HCl, pH 8.0, 137 mM NaCl, 2.7 mM KCl, 1 mM MgCl2) were treated with bovine pancreatic trypsin (2 mg/ml) for the indicated times at room temperature. Samples were in the wells of a 96-well, ½-area white microplate and fluorescence was measured at 1 min. intervals at the excitation and emission wavelengths for free AMC (Excitation: 360 nm; Emission: 460 nm) in a Synergy 2 microplate reading fluorimeter (BioTek), Gain 40. The data points at 0 min. represent the fluorescence of equivalent 1 μM Ac-Lys(Succ.)-AMC and 1 μM Ac-Lys-AMC samples in the absence of trypsin.
As noted in the Background of the Invention section above, the protease trypsin catalyzes the hydrolytic cleavage of amide bonds on the carboxyl side of unmodified lysine residues. Hydrolytic cleavage of lysyl amide bonds with AMC or rhodamine 110 (dye components of Compounds 1 and 2, respectively) releases the free amino forms of the dyes. This elicits an upward shift of the dye's fluorescence emission peak wavelength (bathochromic shift), for example to 460 nm for AMC or 530 nm for rhodamine 110. If succinylation of the ε-amino function of the lysine moieties in compounds such as 1 and 2 renders the amide bond between the carbonyl of lysine and the amino of dye groups such as AMC or rhodamine resistant to trypsin cleavage then, upon desuccinylation, the lysine/dye amide bond would become cleavable by trypsin. Note that removal of a single succinyl group from 2, followed by cleavage of the desuccinylated lysine would yield a compound with a single free amino function, Ac-K(Succ.)-R110. Monoamides of rhodamine 110 also have increased fluorescence emission at 530 nm relative to 2, although they are less fluorescent than rhodamine 110 itself (Liu et al., 1999). Thus, monitoring the fluorescence at the peak wavelength of the amino form of the dye would allow the desuccinylation reaction to be quantified. A schematic for such an assay is depicted for Compound 1 and SIRT5 in FIG. 1. Trypsin treatment (2 mg/ml) elicits an immediate increase in the fluorescence of a solution of Ac-Lys-AMC (Compound 6—FIG. 1) at the excitation and emission wavelengths of free AMC (Ex. 360 nm; Em. 460 nm), with maximum fluorescence achieved in 2 min. or less and ˜⅔ of that maximum occurring in 1 min. (FIG. 2).

SIRT5 [3] = molecular target: T1, SIRT5; assay: SIRT5 desuccinylation/deacetylation of fluorogenic lysyl substrates, trypsin developer; set-up: purchased Enzo Life Sciences BML-SE555
Method: FIG. 3 is graphs showing that SIRT5 catalyzes NAD^+-dependent desuccinylation of Ac-Lys(ε-succinyl)-AMC far more efficiently than NAD^+-dependent deacetylation of Ac-Arg-His-Lys-Lys(ε-acetyl)-AMC. Fifty μl reactions in Assay Buffer (50 mM Tris/HCl, pH 8.0, 137 mM NaCl, 2.7 mM KCl, 1 mM MgCl2, 1 mg/ml BSA) included 50 μM of either Ac-Lys(ε-succinyl)-AMC or Ac-Arg-His-Lys-Lys(ε-acetyl)-AMC, and, where indicated, 500 μM NAD^+ and 5 μg recombinant human SIRT5 (Enzo Life Sciences Cat. # BML-SE555). […] AMC fluorescence was read in a Cytofluor II plate-reading fluorimeter (Perseptive Biosystems) at wavelengths 360 nm (excitation)/460 nm (emission), Gain 54. Data represent the mean of two (No Enzyme) or three (+SIRT5) determinations and error bars the standard deviations. Panels A and B present the same data, but with the +SIRT5/+NAD^+/Ac-Lys(ε-succinyl)-AMC bar omitted from B to show the detail on the remaining bars. Statistically significant differences (Student's t-test) are indicated by asterisks as follows: *: p<0.02 vs. corresponding No Enzyme control; **: p<0.001 vs. corresponding −NAD^+ control; ***: p<3×10^−6 vs. both No Enzyme and −NAD^+ controls.
FIG. 4 is a graph showing that Ac-Lys(Succ.)-AMC enables SIRT5 assay at low enzyme concentrations. Fifty μl reactions in Assay Buffer (50 mM Tris/HCl, pH 8.0, 137 mM NaCl, 2.7 mM KCl, 1 mM MgCl2, 1 mg/ml BSA) included 2 or 10 μM Ac-Lys(ε-succinyl)-AMC, 500 μM NAD^+ and, where indicated, 5 ng recombinant human SIRT5 (Enzo Life Sciences Cat. # BML-SE555). […] AMC fluorescence was read in a Synergy 2 plate-reading fluorimeter (BioTek) at wavelengths 360 nm (excitation)/460 nm (emission), Gain 40. Data represent the mean of two (No Enzyme) or three (5 ng SIRT5) determinations and error bars the standard deviations. Statistically significant differences (Student's t-test) are indicated by asterisks as follows: *: p=0.002; **: p=0.009, each with respect to the corresponding “No SIRT5” samples.
FIG. 5 is graphs showing dependence of SIRT5 initial rate kinetics on the concentrations of Ac-Lys(Succ.)-AMC and Ac-Lys(Ac.)-AMC. Fifty μl desuccinylation or deacetylation reactions were performed as described earlier (FIG. 4), with the indicated concentrations of Ac-Lys(Succ.)-AMC or Ac-Lys(Ac.)-AMC and 1 mM NAD^+, for 20 min. at 37° C. Reactions with Ac-Lys(Succ.)-AMC contained 10 ng SIRT5 and those with Ac-Lys(Ac.)-AMC contained 5 SIRT5. Reactions were stopped and AMC cleaved from deacetylated or desuccinylated substrate by trypsin treatment as described earlier (FIG. 4). AMC fluorescence was read in a Synergy 2 plate-reading fluorimeter (BioTek) at wavelengths 360 nm (excitation)/460 nm (emission), Gain 40. Data represent the mean of the differences of three determinations with enzyme (10 ng or 5 SIRT5) from the mean of two no enzyme samples for each substrate concentration. Error bars are the standard deviations from those means. Fluorescence differences were converted to specific activities (pmol/min/μg) by measuring the fluorescence increase due to the addition a standard solution of AMC (5 μl of a […]).
FIG. 6 is a graph showing the dependence of SIRT5 initial rate kinetics of Ac-Lys(Succ.)-AMC desuccinylation on the concentration of NAD^+. Reaction conditions were as described for FIG. 5 but with a constant Ac-Lys(Succ.)-AMC concentration of 0.5 mM and the indicated concentrations of NAD^+. Data analysis and determination of kinetic parameters were as described (FIG. 5).
FIG. 12 is graphs showing that SIRT5 catalyzes NAD^+-dependent desuccinylation of (Ac-Lys(Succ.))2-R110 far more efficiently than NAD^+-dependent deacetylation of (Ac-Lys(Ac.))2-R110. Fifty μl reactions in Assay Buffer (50 mM Tris/HCl, pH 8.0, 137 mM NaCl, 2.7 mM KCl, 1 mM MgCl2, 1 mg/ml BSA) included 50 μM of either (Ac-Lys(Succ.))2-R110 or (Ac-Lys(Ac.))2-R110, and, where indicated, 500 μM NAD^+ and 5 μg recombinant human SIRT5 (Enzo Life Sciences Cat. # BML-SE555). […]

HDAC2 = molecular target: T3, HDAC2 (Homo sapiens, UniProt Q92769); assay: HDAC activity with fluorogenic lysyl substrates; conditions: 50 μM substrate
T3 construct: purchased ENZO Life Sciences BML-SE500
T3 sequence (Q92769 whole entry): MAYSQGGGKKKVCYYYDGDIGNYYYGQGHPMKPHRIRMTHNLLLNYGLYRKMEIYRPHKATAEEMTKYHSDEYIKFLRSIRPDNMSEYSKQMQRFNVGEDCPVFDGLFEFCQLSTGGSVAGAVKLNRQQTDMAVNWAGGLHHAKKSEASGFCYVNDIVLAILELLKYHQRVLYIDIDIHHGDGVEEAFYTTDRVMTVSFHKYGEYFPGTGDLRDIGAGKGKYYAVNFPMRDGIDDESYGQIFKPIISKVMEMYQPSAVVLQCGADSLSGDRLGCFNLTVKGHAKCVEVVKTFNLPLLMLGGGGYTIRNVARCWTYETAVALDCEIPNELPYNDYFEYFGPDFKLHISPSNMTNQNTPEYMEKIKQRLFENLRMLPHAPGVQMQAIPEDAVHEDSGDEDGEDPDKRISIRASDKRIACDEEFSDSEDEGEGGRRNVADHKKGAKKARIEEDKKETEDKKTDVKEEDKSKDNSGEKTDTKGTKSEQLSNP
Method: The Ac-Lys(Succ.)-AMC substrate was tested for activity with recombinant preparations of human HDACs 1-11, SIRTs 1-4, 6 and 7, a complex of HDAC3 with a fragment of the activating protein NCOR1 and with HeLa nuclear extract, a rich source of active HDACs in their native multiprotein complexes.
Enzyme and extract catalog products obtained from ENZO Life Sciences included: HDAC1 (Cat. # BML-SE456), HDAC2 (Cat. # BML-SE500), HDAC3 (Cat. # BML-SE507), HDAC3/NCOR1 Complex (Cat. # BML-SE515), HDAC6 (Cat. # BML-SE508), HDAC8 (Cat. # BML-SE145), HDAC10 (Cat. # BML-SE559), HDAC11 (Cat. # BML-SE560), SIRT1 (Cat. # BML-SE239), SIRT2 (Cat. # BML-SE251), SIRT3 (Cat. # BML-SE270), SIRT5 (Cat. # BML-SE555), HeLa Nuclear Extract (Cat. # BML-KI140), Trypsin (“Fluor de Lys Developer”, 80 mg/ml bovine trypsin in 1 mM HCl, Cat. # BML-KI105 or “Fluor de Lys Developer II”, 80 mg/ml bovine trypsin in 1 mM HCl, Cat. # BML-KI176). […] Enzymes obtained from BPS Bioscience, San Diego, Calif. included: human recombinants SIRT4 (Cat. #50015), SIRT6 (Cat. #50017), SIRT7 (Cat. #50018). HeLa whole cell extract was obtained from HeLa S3 cells (American Type Culture Collection) grown in a medium of MEM/10% fetal bovine serum (FBS) as follows: 1) 9×10^6 cells were suspended by trypsinization, followed by a phosphate buffered saline (PBS) rinse and addition of MEM/10% FBS (1.5 mL) to eliminate trypsin before transfer to a 15 mL conical tube; 2) cells were sedimented by a low speed centrifugation, gently resuspended in PBS and sedimented again and supernatant removed; 3) lysis was induced by resuspension in 0.8 mL 50 mM Tris/HCl, pH 8.0 with the non-denaturing detergent NP-40 (0.5%), placement on ice and brief vortexing every 5 min. for 30 min.; 4) 100 μl of a concentrated salt solution in the same buffer was added in order to bring the final buffer composition to 50 mM Tris/C1, pH 8.0, 137 mM NaCl, 2.7 mM KCl, 1 mM MgCl2, 0.5% NP-40; 5) particulate matter was cleared by centrifugation and the cleared lysate supernatant transferred to a 1.5 mL Eppendorf tube and stored on ice until use in activity assays.
as §1

SMILES: CC(=O)N[C@@H](CCCCN)C(=O)Nc1ccc2c(C)cc(=O)oc2c1 [Compound 6, N-(α-acetyl-Lysine)-AMC, reference compound]
- Fraction of maximum fluorescence at 1 min. [2]: ⅔
- Time to maximum fluorescence on trypsin treatment [2]: ≤ 2 min

SMILES: CC(=O)NC(CCCCNC(=O)CCC(=O)O)C(=O)Nc1ccc2c(c1)Oc1cc(NC(=O)C(CCCCNC(=O)CCC(=O)O)NC(C)=O)ccc1C21OC(=O)c2ccccc21 (stereo not drawn) [Compound 2, N,N′-Bis(α-acetyl-Lysine(ε-succinyl))-rhodamine 110]
- SIRT5/NAD^+ dependence of desuccinylation (SIRT5 [3]; 5 μg SIRT5, 50 μM substrate, 500 μM NAD^+, 60 min.): desuccinylated by SIRT5 in a time and NAD^+-dependent manner

Further lines, results first:

- slope (fitted parameter of dose-response curve) (SIRT5 [1]): 0.98
- top (fitted parameter of dose-response curve) (SIRT5 [1]): 90.2 pmol/min/µg
SMILES: NC(=O)c1cccnc1 [nicotinamide]

- Km (SIRT5 [3]; varied substrate: NAD^+, constant 0.5 mM Ac-Lys(Succ.)-AMC): 360 µM
SMILES: NC(=O)c1ccc[n+]([C@@H]2O[C@H](COP(=O)([O-])OP(=O)(O)OC[C@H]3O[C@@H](n4cnc5c(N)ncnc54)[C@H](O)[C@@H]3O)[C@@H](O)[C@H]2O)c1 [NAD^+]

- Activity (pmol/min/μg) (HDAC2): (Ac-Lys(Ac))2-R110/502 pmol/min/μg
SMILES: CC(=O)NCCCCC(NC(C)=O)C(=O)Nc1ccc2c(c1)Oc1cc(NC(=O)C(CCCCNC(C)=O)NC(C)=O)ccc1C21OC(=O)c2ccccc21 (stereo not shown) [(Ac-Lys(Ac))2-R110, reference compound]
